Legend:
Type in all cases: cell-based
human iPS cells = assay: Evaluation of cytotoxic activity against iPS cells (DAPI nuclear staining, DAPI positive area); details: 24 hours
Protocol: Human iPS cells were cultured under feeder-free condition according to the method described in Scientific Reports, 4, 3594 (2014). The StemFit medium (AKO3N, Ajinomoto) was used as feeder-free medium, and Laminin511-E8 (Nippi) was used as feeder-free scaffold.
The subconfluent human iPS cells were washed with PBS and dispersed into single cells using TrypLE Select (Life Technologies). The human iPS cells were then seeded in a plastic culture dish coated with Laminin511-E8, and cultured under feeder-free conditions at 37° C. and 5% CO2 using the StemFit medium in the presence of Y27632 (ROCK inhibitory compound, 10 μmol/L). A 96-well plate (BD, for cell culture, culture area 0.35 cm^2) was used as the plastic culture dish, and the number of plated cells for the human iPS cells dispersed into single cells was set to 0.03×10^4. The medium was changed to Y27632-free StemFit medium 1 day after the seeding. Thereafter, the medium was changed to the Y27632-free StemFit medium once in 1 to 2 days. The cells were then cultured until subconfluent (60% of culture area is covered with the cells). To the human iPS cells was added the Stem Fit medium (AK03; Ajinomoto) to adjust the final concentrations of the compounds of Examples 1-2, 10-2, and 22 dissolved in DMSO to 10, 1, 0.1, and 0.01 μmol/L, and the cells were cultured for 24 hours.
After 24 hours, the medium was removed, the obtained cells were each fixed with 4% paraformaldehyde at 4° C. for 15 minutes, PBS solution containing DAPI (Sigma) was added thereto to perform nuclear staining for the cells, and then the cells were observed by inverted fluorescence microscope (Keyence, BIREVO). In addition, the DAPI positive area was calculated using the quantitative software of the microscope.

[1] = system: differentiation-inducing cell aggregates formed from human iPS cells; assay: Effect on differentiation-inducing cell aggregates (Cleaved Caspase-3 immunostaining); details: 24 hours, aggregates without treatment 19%
Protocol: Firstly, differentiation-inducing cell aggregates were prepared according to the following procedures.
According to a similar method to that of Test Example 2, the human iPS cells one day before subconfluence were cultured under feeder free conditions using the StemFit medium (AK03; Ajinomoto) in the presence of SB431542 (TGFβ signaling pathway inhibitory compound (TGFβR-i), 5 μmol/L) for 1 day. A 6-well plate (Iwaki, for cell culture, culture area 9.4 cm^2) was used as the plastic culture dish, and the number of plated cells for the human iPS cells dispersed into single cells was set 1.0×10^4. The cells were treated with cell dispersion using TrypLE Select (Life Technologies), and dispersed into single cells by pipetting operation. The cells were then suspended in 100 μl of a serum-free medium at 1.0×10^4 cells per well of a non-cell adhesive 96-well culture plate (PrimeSurface 96V-bottom plate, manufactured by SUMITOMO BAKELITE), and cultured in suspension at 37° C. and 5% CO2. As the serum-free medium (gfCDM+KSR), a serum-free medium which is 1:1 mixture of F-12 medium and IMDM medium supplemented with 10% KSR, 450 μmol/L 1-monothioglycerol, and 1×Chemically defined lipid concentrate was used. At the time of the start of suspension culture (day 0 after the start of suspension culture), Y27632 (final concentration: 20 μmol/L) was added to the medium, and the cells was further cultured using a medium containing Wnt signaling inhibitory compound (IWR-1e, 3 μmol/L).
After culturing at 37° C. and 5% CO2 for 24 hours, the medium was changed to the serum-free medium containing the present compound in a final concentration of 0.1 μmol/L or 1 μmol/L, or DMSO in a concentration equal thereto, and the cells were cultured for additional 24 hours. After 24 hours, the obtained cell aggregates were fixed with 4% paraformaldehyde to prepare frozen sections. […] The immunostained sections were observed by inverted fluorescence microscope (Keyence, BIREVO). In addition, the Cleaved Caspase-3 positive area was calculated using the NIH Image-J software.

HCT-116 cells = assay: Test for inhibiting sphere-forming ability of cancer cells; details: Homo sapiens, 96 h, non-adherent serum-free sphere culture, 4 days, CellTiter-Glo, read-out: IC50 (Sphere IC50 value; concentration for 50% inhibition of cell proliferation)
Protocol: The reliable methods established for measuring the self-renewal ability of cells which is one of the CSC's properties include a method for measuring the sphere-forming ability of cancer cells in non-adherent condition in the absence of serum (Cancer Res 65, 5506-5511 (2005)). HCT-116 cells were available from the American Type Culture Collection (ATCC). HCT-116 cells were cultured at 37° C. and 5% CO2 using the McCoy's 5a medium containing 10% fetal bovine serum (FBS), 100 U/ml penicillin, and 100 μg/ml streptomycin. HCT-116 cells were seeded in a 384 Well Black Clear Bottom Ultra-Low Attachment Microplate (Corning Cat. No. 3827) in an amount of 350-800 cells/well using the DMEM/F12 medium containing 2% B27 supplement (GIBCO), 20 ng/mL epidermal growth factor (EGF) (peprotech), 10 ng/mL basic fibroblast growth factor (bFGF) (peprotech), 5 μg/mL insulin (Sigma), and 1% penicillin/streptomycin. The test compounds were added into each well to adjust the final concentration of DMSO to 0.1%, and the cells were cultured for 4 days. The number of viable cells in each well was then measured with CeilTiter-Glo® Luminescent Cell Viability Assay (Promega) to calculate the concentration of each test compound for 50% inhibition of cell proliferation (Sphere IC50 value; μmol/L).
The experiment of Test Example 1 was performed for the compound of each Example. The concentration of each test compound for 50% inhibition of cell proliferation (Sphere IC50 value; μmol/L) is shown in the following Table.

IC50 (HCT-116 cells) [µM]	SMILES	further results
0.08	N#Cc1ccc(/C=C/C(=O)Nc2cn(Cc3cccc(Cl)c3)cn2)cc1OCCO [Example 8]	–
0.89	O=C(/C=C/c1cccnc1)Nc1cn(Cc2cccc(Cl)c2)cn1 [Example 9, (2E)-N-(1-(3-Chlorobenzyl)-1H-imidazol-4-yl)-3-(pyridin-3-yl)prop-2-enamide]	–
0.63	COc1ccc(C(=O)Nc2cn(Cc3cccc(Cl)c3)cn2)cc1OC.Cl [Example 10-2, N-[1-(3-Chlorobenzyl)-1H-imidazol-4-yl]-3,4-dimethoxybenzamide hydrochloride]	ratio of viable cells to that of cells without treatment (human iPS cells; 1 μmol/L): 37%; ratio of viable cells to that of cells without treatment (human iPS cells; 10 μmol/L): 17%; ratio of Cleaved Caspase-3 positive area in the cell aggregates ([1]; 1 μmol/L): 26%
0.06	COc1ccc(C(=O)Nc2cn(Cc3cc(F)c(F)c(F)c3)cn2)cc1OC [Example 13]	–
0.629	O=C(Nc1nc(CO)cs1)c1cn(Cc2cc(F)c(F)c(F)c2)cn1 [Example 16]	–
< 0.01	O=C(COc1ccc(CO)nc1)Nc1cn(Cc2cc(F)c(F)c(F)c2)cn1 [Example 17]	–

More lines, now with the values behind:

SMILES	IC50 (HCT-116 cells) [µM]	further results
CC(=O)Nc1ccc(/C=C/C(=O)Nc2cn(Cc3cccc(C(F)(F)F)c3)cn2)cc1.Cl [Example 1-2, (2E)-3-[4-(Acetylamino)phenyl]-N-(1-[3-(trifluoromethyl)benzyl]-1H-imidazol-4-yl)prop-2-enamide hydrochloride]	–	ratio of viable cells to that of cells without treatment (human iPS cells; 0.1 μmol/L): 53%; ratio of viable cells to that of cells without treatment (human iPS cells; 1 μmol/L): 25%; ratio of viable cells to that of cells without treatment (human iPS cells; 10 μmol/L): 14%; concentration at which cytotoxic activity against human iPS cells was found (human iPS cells; tested at 10, 1, 0.1 and 0.01 μmol/L): ≥ 100 nM; ratio of Cleaved Caspase-3 positive area in the cell aggregates ([1]; 0.1 μmol/L): 24%; ratio of Cleaved Caspase-3 positive area in the cell aggregates ([1]; 1 μmol/L): 27%
CC(=O)Nc1ccc(/C=C/C(=O)Nc2cn(Cc3cccc(Cl)c3)cn2)cc1 [Example 2]	0.22	–
CC(=O)Nc1ccc(/C=C/C(=O)Nc2cn(Cc3cccc(OC(F)(F)F)c3)cn2)cc1 [Example 3]	0.63	–
CC(=O)Nc1ccc(/C=C/C(=O)Nc2cn(Cc3cc(F)c(F)c(F)c3)cn2)cc1 [Example 4]	< 0.01	–
COc1ccc(/C=C/C(=O)Nc2cn(Cc3cc(F)c(F)c(F)c3)cn2)cc1OCCO [Example 5, (E)-3-(3-(2-Hydroxyethoxy)-4-methoxyphenyl)-N-(1-(3,4,5-trifluorobenzyl)-1H-imidazol-4-yl)acrylamide]	0.06	–
COc1ccc(/C=C/C(=O)Nc2cn(Cc3cccc(Cl)c3)cn2)cc1OCCO [Example 6, (2E)-N-[1-(3-Chlorobenzyl)-1H-imidazol-4-yl]-3-[3-(2-hydroxyethoxy)-4-methoxyphenyl]prop-2-enamide]	0.06	–
COc1ccc(/C=C/C(=O)Nc2cn(Cc3cccc(C(F)(F)F)c3)cn2)cc1OCCO [Example 7]	0.09	–
COc1ccc(NC(=O)c2cn(Cc3cc(F)c(F)c(F)c3)cn2)cc1OC [Example 14]	0.21	–
O=C(Nc1cn(Cc2cccc(C(F)(F)F)c2)cn1)c1ccc(CO)nc1 [Example 22, 6-(hydroxymethyl)-N-{1-[3-(trifluoromethyl)benzyl]-1H-imidazol-4-yl}nicotinamide]	–	ratio of viable cells to that of cells without treatment (human iPS cells; 0.1 μmol/L): 51%; ratio of viable cells to that of cells without treatment (human iPS cells; 1 μmol/L): 31%
